Data set [1] has as its system ERK1/2(Thr202/Tyr204) phosphorylation (MEK-dependent) in A375 cells. The data set can be described thus: Cellular Phospho-p44/42 MAPK (Erk1/2) (Thr202/Tyr204) Assay. Type of data set: cell-based. The following applies: Homo sapiens, A-375, 1-hour incubation, pERK1/2 (Thr202/Tyr204) In-Cell Western normalized to GAPDH. Here is the method: Inhibition of ERK1/2(Thr202/Tyr204) phosphorylation was determined by the following cellular assay, which comprises incubating cells with a compound for 1 hour and quantifying pERK signal by In-Cell Western on fixed cells and normalizing to GAPDH signal. A375 cells were obtained from the ATCC and grown in DMEM supplemented with 10% fetal bovine serum, penicillin/streptomycin, Glutamax®, non-essential amino acids, and sodium pyruvate. Cells were plated in 96-well plates at 30,000 cells/well and allowed to attach overnight at 37° C./5% CO2. Cells were treated with compounds prepared as a 10-point, 1:3 dilution series (range: 20 μM-0.05 nM; maximum concentration varied from 20 μM-1 μM), with a final DMSO concentration of 0.5%. Control wells contained either 0.5% DMSO alone (no inhibition control) or 1 μM of a potent control compound (complete inhibition control). After a 1-hour incubation, cells were fixed in 3.7% formaldehyde in dPBS (Dulbecco's phosphate-buffered saline) at room temperature for 20 minutes. Cells were then washed with dPBS and permeabilized in 100% MeOH at room temperature for 10 minutes. Following permeabilization, cells were washed in dPBS and incubated in LI-COR Blocking Buffer (LI-COR Biosciences, Cat #927-40000) for 1 hour or longer. Plates were then incubated with an antibody specific for the MEK-dependent ERK1/2 phosphorylation sites, threonine 202 and tyrosine 204 (Cell Signaling Technologies; Cat #9101), downstream of MEK in the MAP kinase signal transduction pathway, as well as GAPDH (Millipore; Cat #MAB374). pErk1/2 (Thr202/Tyr204) antibody was diluted in LI-COR blocking buffer containing 0.05% Tween-20 at 1:250; GAPDH was diluted at 1:2,500. The plates were incubated overnight at 4° C. After washing with PBS/0.05% Tween-20, the cells were incubated with fluorescently-labeled secondary antibodies (Anti-rabbit-Alexa Flour680, Invitrogen Cat #A21109; Anti-mouse-IRDye800CW, LI-COR Biosciences Cat #926-32210, both at 1:1000 dilution) for 1 hour. Cells were then washed, as above, and analyzed for fluorescence at both 680 and 800 nm wavelengths using the Odyssey CLx Infrared Imaging System (LI-COR Biosciences). Phosphorylated Erk1/2 (Thr202/Tyr204) signal was normalized to GAPDH signal for each well.

The target in data set [2] is T1, P-gp (MDR1) (Homo sapiens, UniProt P08183).
T1 construct: expressed in transfected cells; host or cells: LLC-PK1 (porcine kidney) cells transfected with MDR1
The data set can be described thus: Efflux ratio in MDR1 transfected LLC-PK1 cells. The settings on record: pig, Papp(B−A)/Papp(A−B). Type of data set: in vitro ADME. The procedure:
(§1) Both LLC-PK1 and MDR1 transfected LLC-PK1 cells were cultured and plated according to manufacturer's recommendations with the exception that the passage media contained only 2% fetal bovine serum to extend passage time out to seven days.
(§2) Both positive and negative controls were used to assess functionality of P-gp or BCRP efflux in the assays. Stock solutions for assay controls and the test article were prepared in DMSO for final test concentrations of 10 and 1 μM, respectively. Final organic concentration in the assay was 1%. All dosing solutions contained 10 μM lucifer yellow to monitor LLC-PK1 or MDCKII cell monolayer integrity.
(§3) For the apical to basolateral determination (A to B), 75 μL of the test article in transport buffer were added to the apical side of the individual transwells and 250 μL of basolateral media, without compound or lucifer yellow, were added to each well. For the basolateral to apical determination (B to A), 250 μL of test article in transport buffer were added to each well and 75 μL transport buffer, without compound or lucifer yellow, were added to each transwell. All tests were performed in triplicate, and each compound was tested for both apical to basolateral and basolateral to apical transport. The plates were incubated for 2 hours on a Lab-Line Instruments Titer Orbital Shaker (VWR, West Chester, PA) at 50 rpm and 37° C. with 5% CO2. All culture plates were removed from the incubator and 50 μL of media were removed from the apical and basolateral portion of each well and added to 150 μL of 1 μM labetalol in 2:1 acetonitrile (acetonitrile): H2O, v/v.
(§4) The plates were read using a Molecular Devices (Sunnyvale, CA) Gemini Fluorometer to evaluate the lucifer yellow concentrations at excitation/emission wavelengths of 425/535 nm. These values were accepted when found to be below 2% for apical to basolateral and 5% basolateral to apical flux across the MDR1-transfected LLC-PK1 or BCRP-transfected MDCKII cell monolayers. The plates were sealed and the contents of each well analyzed by LC-MS/MS. The compound concentrations were determined from the ratio of the peak areas of the compound to the internal standard (labetalol) in comparison to the dosing solution.
(§5) The LC-MS/MS system was comprised of an HTS-PAL autosampler (Leap Technologies, Carrboro, NC), an HP1200 HPLC (Agilent, Palo Alto, CA), and a MDS Sciex 4000 Q Trap system (Applied Biosystems, Foster City, CA). […] The total run time, including re-equilibration, for a single injection was 1.2 minutes. Mass spectrometric detection of the analytes was accomplished using the ion spray positive mode. Analyte responses were measured by multiple reaction monitoring (MRM) of transitions unique to each compound (the protonated precursor ion and selected product ions for each test article and m/z 329 to m/z 162 for labetalol, the internal standard).
(§6) An efflux ratio is calculated from the mean apical to basolateral (A−B) Papp data and basolateral to apical (B−A) Papp data: Efflux ratio=Papp(B−A)/Papp(A−B)

Data set [3] is described as follows: MDR1 LLC-PK1 and BCRP MDCKII Permeability Assay: permeability coefficient (Papp). The following applies: MDCK, test article 1 μM, 37° C. The data set is classed as in vitro ADME. The procedure:
as §1
(§7) BCRP transfected MDCKII canine P-gp knockout cell line was cultured and plated according to manufacturer's recommendations.
as §2, §3, §4, §5

The target in data set [4] is T2, BCRP (hBCRP) (Homo sapiens, UniProt Q9UNQ0).
T2 construct: expressed in transfected cells; host or cells: MDCKII (canine kidney) cells, canine P-gp knockout, transfected with BCRP
T2 sequence (Q9UNQ0 1-655): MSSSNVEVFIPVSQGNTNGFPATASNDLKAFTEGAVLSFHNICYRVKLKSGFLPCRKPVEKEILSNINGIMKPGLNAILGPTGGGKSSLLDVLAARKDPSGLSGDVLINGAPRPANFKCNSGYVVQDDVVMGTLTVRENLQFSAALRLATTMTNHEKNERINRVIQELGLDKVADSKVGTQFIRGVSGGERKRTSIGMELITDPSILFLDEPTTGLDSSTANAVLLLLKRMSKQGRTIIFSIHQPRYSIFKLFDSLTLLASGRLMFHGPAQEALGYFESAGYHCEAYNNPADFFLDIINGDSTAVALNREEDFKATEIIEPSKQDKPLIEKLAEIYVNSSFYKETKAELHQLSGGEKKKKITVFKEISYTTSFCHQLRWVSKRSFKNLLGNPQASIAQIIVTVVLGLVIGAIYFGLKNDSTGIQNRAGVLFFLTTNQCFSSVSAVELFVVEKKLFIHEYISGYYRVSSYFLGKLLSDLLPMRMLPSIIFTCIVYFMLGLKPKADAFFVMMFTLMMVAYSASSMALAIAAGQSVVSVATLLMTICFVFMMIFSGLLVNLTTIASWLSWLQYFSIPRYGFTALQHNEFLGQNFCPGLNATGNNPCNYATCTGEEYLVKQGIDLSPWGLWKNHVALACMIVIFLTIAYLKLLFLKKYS
The data set can be described thus: Efflux ratio in BCRP transfected MDCKII canine P-gp knockout cells. The data set is classed as in vitro ADME. The following applies: Papp(B−A)/Papp(A−B), read-out: Efflux ratio MDCKII-hBCRP knock-in,canine pg-P KO. The procedure:
as §7, §2, §3, §4, §5, §6

pIC50: −log10 of the molar value.

T1 sequence (P08183 whole entry): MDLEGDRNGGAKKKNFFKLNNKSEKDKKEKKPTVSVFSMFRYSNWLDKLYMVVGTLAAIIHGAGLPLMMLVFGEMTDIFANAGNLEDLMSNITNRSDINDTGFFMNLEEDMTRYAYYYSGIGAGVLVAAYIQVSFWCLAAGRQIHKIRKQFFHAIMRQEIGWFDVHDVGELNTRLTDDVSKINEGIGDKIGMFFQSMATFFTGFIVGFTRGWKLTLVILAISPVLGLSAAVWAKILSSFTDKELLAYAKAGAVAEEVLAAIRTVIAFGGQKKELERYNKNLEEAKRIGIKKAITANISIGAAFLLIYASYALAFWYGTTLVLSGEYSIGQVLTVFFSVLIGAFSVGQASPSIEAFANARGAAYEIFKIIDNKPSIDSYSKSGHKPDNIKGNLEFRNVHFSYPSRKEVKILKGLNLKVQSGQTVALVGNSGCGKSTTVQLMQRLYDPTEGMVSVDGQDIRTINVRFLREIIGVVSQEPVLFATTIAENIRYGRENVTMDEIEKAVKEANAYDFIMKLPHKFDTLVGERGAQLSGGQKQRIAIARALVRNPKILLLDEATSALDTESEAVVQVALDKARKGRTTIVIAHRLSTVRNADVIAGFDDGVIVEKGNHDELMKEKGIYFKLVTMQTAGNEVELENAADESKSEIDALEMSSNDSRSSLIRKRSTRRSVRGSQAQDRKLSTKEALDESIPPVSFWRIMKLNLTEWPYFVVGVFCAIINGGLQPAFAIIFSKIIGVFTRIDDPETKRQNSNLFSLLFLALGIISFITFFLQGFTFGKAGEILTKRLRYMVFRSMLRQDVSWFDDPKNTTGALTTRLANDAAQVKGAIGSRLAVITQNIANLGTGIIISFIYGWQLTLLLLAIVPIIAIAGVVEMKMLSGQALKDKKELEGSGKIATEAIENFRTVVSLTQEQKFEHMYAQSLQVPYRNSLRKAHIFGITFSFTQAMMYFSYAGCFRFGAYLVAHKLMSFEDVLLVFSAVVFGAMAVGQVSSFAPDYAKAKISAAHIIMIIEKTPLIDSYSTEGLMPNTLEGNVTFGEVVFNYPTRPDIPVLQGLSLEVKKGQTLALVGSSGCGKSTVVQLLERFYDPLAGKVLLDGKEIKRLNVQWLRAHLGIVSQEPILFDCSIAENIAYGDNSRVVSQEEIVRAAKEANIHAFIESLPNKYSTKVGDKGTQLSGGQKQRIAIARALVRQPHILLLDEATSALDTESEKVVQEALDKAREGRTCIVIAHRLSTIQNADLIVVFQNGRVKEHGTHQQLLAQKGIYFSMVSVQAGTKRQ

The pIC50 is −log10 of the IC50, conventionally taken in molar units. Low readings indicate a large IC50, high ones a small IC50. As usually defined, the Papp is a coefficient for how fast a substance crosses the barrier. Higher therefore signals ready permeation. As to `Cn1c(Nc2ccc(I)cc2F)c2c(cc1=O)CCN(C1CC1)C2=O` [Example 5, 2-cyclopropyl-8-((2-fluoro-4-iodophenyl)amino)-7-methyl-3,4-dihydro-2,7-naphthyridine-1,6(2H,7H)-dione], the pIC50 in data set [1] was 7.70. In addition, the figures for the efflux ratio at 2 h, 1 μM in data set [2] and in data set [4] were 1.6 and 1, respectively. The compound also registered a Papp at 2 h, 1 μM in data set [3] of 27.8 ×10⁻⁶ cm/s.
As to `Cn1c(Nc2ccc(I)cc2Cl)c2c(cc1=O)CCN(OCCO)C2=O` [Example 9, 8-((2-chloro-4-iodophenyl)amino)-2-(2-hydroxyethoxy)-7-methyl-3,4-dihydro-2,7-naphthyridine-1,6(2H,7H)-dione], in data set [1], the pIC50 was 8.52. Further, the efflux ratio at 2 h, 1 μM in data set [2] turned out to be 7.7; in data set [4] it was 3.2. Moreover, in data set [3], the Papp at 2 h, 1 μM was 27.1 ×10⁻⁶ cm/s.
In data set [1], `Cn1c(Nc2ccc(Br)cc2Cl)c2c(cc1=O)CCN(OCCO)C2=O` [Example 10, 8-((4-bromo-2-chlorophenyl)amino)-2-(2-hydroxyethoxy)-7-methyl-3,4-dihydro-2,7-naphthyridine-1,6(2H,7H)-dione] showed a pIC50 of 7.24. Further, the efflux ratio at 2 h, 1 μM in data set [2] worked out at 6.7; in data set [4], 6.3. Besides, the Papp at 2 h, 1 μM in data set [3] came to 26.5 ×10⁻⁶ cm/s.
The matching figures for `Cn1c(Nc2ccc(C3CC3)cc2F)c2c(cc1=O)CCN(OCCO)C2=O` [Example 15, 8-((4-cyclopropyl-2-fluorophenyl)amino)-2-(2-hydroxyethoxy)-7-methyl-3,4-dihydro-2,7-naphthyridine-1,6(2H,7H)-dione]: 7.77, 3.7, 2.2 and 27.5 ×10⁻⁶ cm/s.
As for `Cn1c(Nc2ccc(C3CC3)cc2Cl)c2c(cc1=O)CCN(OCCO)C2=O` [Example 19, 8-((2-chloro-4-cyclopropylphenyl)amino)-2-(2-hydroxyethoxy)-7-methyl-3,4-dihydro-2,7-naphthyridine-1,6(2H,7H)-dione], the pIC50 in data set [1] is 7.54. For the same compound, the efflux ratio at 2 h, 1 μM in data set [2] is 3.3; in data set [4], 1.5. In data set [3], the Papp at 2 h, 1 μM stood at 25.9 ×10⁻⁶ cm/s.
Consider `CSc1ccc(Nc2c3c(cc(=O)n2C)CCN(OCCO)C3=O)c(Cl)c1` [Example 21, 8-((2-chloro-4-(methylthio)phenyl)amino)-2-(2-hydroxyethoxy)-7-methyl-3,4-dihydro-2,7-naphthyridine-1,6(2H,7H)-dione], for which, in data set [1], the pIC50 was 8.00. In addition, the efflux ratio at 2 h, 1 μM in data set [2] came out at 4.2; in data set [4], 3. In data set [3], this compound showed an apparent permeability coefficient (Papp) at 2 h, 1 μM of 28.8 ×10⁻⁶ cm/s.
Taken in the same sequence, the figures for `CCc1ccc(Nc2c3c(cc(=O)n2C)CCN(OCCO)C3=O)c(Cl)c1` [Example 23, 8-((2-chloro-4-ethylphenyl)amino)-2-(2-hydroxyethoxy)-7-methyl-3,4-dihydro-2,7-naphthyridine-1,6(2H,7H)-dione] were 7.59, 3.2, 2 and 30.4 ×10⁻⁶ cm/s.
The matching figures for `Cn1c(Nc2ccc(SC(F)F)cc2F)c2c(cc1=O)CCN(OCCO)C2=O` [Example 25, 8-((4-((difluoromethyl)thio)-2-fluorophenyl)amino)-2-(2-hydroxyethoxy)-7-methyl-3,4-dihydro-2,7-naphthyridine-1,6(2H,7H)-dione]: 8.52, 5.7, 14.1 and 26.4 ×10⁻⁶ cm/s.
The matching figures for `CC(C)ON1CCc2cc(=O)n(C)c(Nc3ccc(I)cc3F)c2C1=O` [Example 27, 8-((2-fluoro-4-iodophenyl)amino)-2-isopropoxy-7-methyl-3,4-dihydro-2,7-naphthyridine-1,6(2H,7H)-dione]: 6.85, 0.9, 1.4 and 25.1 ×10⁻⁶ cm/s.
`CCON1CCc2cc(=O)n(C)c(Nc3ccc(I)cc3F)c2C1=O` [Example 28, 2-ethoxy-8-((2-fluoro-4-iodophenyl)amino)-7-methyl-3,4-dihydro-2,7-naphthyrdine-1,6(2H,7H)-dione] gave a pIC50 in data set [1] of 7.59. Also, the efflux ratio at 2 h, 1 μM in data set [2] and in data set [4] was 1.1 in each case. Besides, in data set [3], the Papp at 2 h, 1 μM came to 26.1 ×10⁻⁶ cm/s.
In data set [1], `CON1CCc2cc(=O)n(C)c(Nc3ccc(I)cc3F)c2C1=O` [Example 29, 8-((2-fluoro-4-iodophenyl)amino)-2-methoxy-7-methyl-3,4-dihydro-2,7-naphthyridine-1,6(2H,7H)-dione] had a pIC50 of 7.77. Also, the figures for the efflux ratio at 2 h, 1 μM in data set [2] and in data set [4] were 1.5 and 1.1, respectively. For the same compound, the Papp at 2 h, 1 μM in data set [3] was found to be 32.8 ×10⁻⁶ cm/s.

Values taken from patent publication US11802127B2, “3,4-dihydro-2,7-naphthyridine-1,6(2H,7H)-diones as MEK inhibitors” (Pfizer Inc., priority 2021, dated 2023).
